Assay results published in patent publication US10502741B2, “Means and methods for detecting activated MALT1” (Helmholtz Zentrum München Deutsches Forschungszentrum für …, priority 2014, dated 2019).
Values belong to the molecule of their own block, whether it stands above or below them. Primed or numbered codes have the meaning given here. The star is where a group is joined. FITC = O=C1OC2(c3ccc(O)cc3Oc3cc(O)ccc32)c2ccc(NC(=S)*)cc21; AOMK = acyloxymethyl ketone C-terminal warhead; AOMK″ = acyloxymethyl ketone; BODIPY = not defined here

Experiments:
active MALT1 [1] = biological target: T1, active MALT1 (Homo sapiens, UniProt Q9UDY8); assay: Probe 7-pulldown with streptavidin beads and western blot; assay type: cell-based
T1 construct: endogenous in cells; host or cells: Jurkat T cells, primary human PBMCs and T cells, DLBCL cell lines (HBL1, TMD8, OCI-Ly3, OCI-Ly10, U2932, RIVA, BJAB, Su-DHL-4, Su-DHL-6)
T1 sequence (Q9UDY8 1-824): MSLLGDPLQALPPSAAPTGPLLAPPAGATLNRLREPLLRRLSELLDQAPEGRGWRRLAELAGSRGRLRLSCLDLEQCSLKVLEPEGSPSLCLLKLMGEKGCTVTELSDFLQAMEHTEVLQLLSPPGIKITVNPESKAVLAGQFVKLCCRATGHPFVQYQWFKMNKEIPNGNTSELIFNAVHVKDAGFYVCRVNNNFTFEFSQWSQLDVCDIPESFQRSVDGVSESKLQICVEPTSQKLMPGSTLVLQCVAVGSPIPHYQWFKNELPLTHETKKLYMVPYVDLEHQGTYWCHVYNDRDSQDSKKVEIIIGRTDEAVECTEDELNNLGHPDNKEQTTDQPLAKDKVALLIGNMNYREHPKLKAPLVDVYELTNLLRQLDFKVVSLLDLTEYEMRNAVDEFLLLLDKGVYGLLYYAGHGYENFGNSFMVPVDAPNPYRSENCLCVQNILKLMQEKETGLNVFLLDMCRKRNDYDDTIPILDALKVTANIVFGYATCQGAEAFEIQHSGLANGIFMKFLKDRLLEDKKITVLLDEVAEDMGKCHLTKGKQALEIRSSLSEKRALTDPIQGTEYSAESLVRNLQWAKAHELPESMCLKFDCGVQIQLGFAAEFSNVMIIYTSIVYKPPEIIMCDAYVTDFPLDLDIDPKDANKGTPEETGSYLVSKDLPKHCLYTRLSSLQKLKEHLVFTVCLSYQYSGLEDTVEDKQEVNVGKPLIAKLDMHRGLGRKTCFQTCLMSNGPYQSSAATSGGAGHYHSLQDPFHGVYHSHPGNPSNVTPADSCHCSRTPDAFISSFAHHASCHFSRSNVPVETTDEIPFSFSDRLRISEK
Experimental: (§1) Jurkat T cells were cultured in standard RPMI medium containing 10% FCS, 100 U/ml Penicillin/Streptomycin and 2 mM Glutamin. DNA transfection of 6 μg DNA in 8×10^6 Jurkat T cells was performed by electroporation in a GenePulser Xcell (BioRad) with a 220 Volt pulse. For siRNA experiments, Jurkat T cells were transfected with 100 nM siRNA and Atufect transfection reagent (Silence Therapeutics, Berlin). Jurkat T cells were stimulated either with 200 ng/ml PMA (phorbol 12-myristate 13-acetate) and 300 ng/ml Ionomycin (both Calbiochem) or CD3/CD28 antibody co-ligation (human CD3: 1 μg/ml; human CD28: 4 μg/ml; mouse IgG1: 2 μg/ml; mouse IgG2a: 2 μg/ml; BD Biosciences). DLBCL cell lines (HBL1, TMD8, OCI-Ly3, U2932, RIVA, BJAB, Su-DHL-4 and Su-DHL-6) were cultured in standard RPMI medium containing 20% FCS, 100 U/ml Penicillin/Streptomycin and 2 mM Glutamin. OCI-Ly10 cell line was cultured in IMDM containing 20% human serum, 100 U/ml Penicillin/Streptomycin, 2 U/ml heparine, 50 μM β-mercaptoethanol. Inhibitors 10 μM (z-VRPR-FMK, Mepazine, Thioridazine, CA-074Me) were added to the cells in media for 1 h, prior to stimulation and labeling with diagnostic MALT1 inhibitor.
Untreated DLBCL (1-2×10^7) or Jurkat T cells (stimulated with PMA/Ionomycin or CD3/28 or left untreated; 1-2×10^7), were lysed in 500 μl co-IP buffer without protease inhibitors, centrifuged, incubated with probe 7 (concentration as depicted) for 1 h at RT then incubated with streptavidin beads for 2 h at 4° C. Precipitate was washed, analysed by SDS-PAGE and western blot.

active MALT1 [2] = biological target: T1, active MALT1; assay: ELISA-based assay (MALT1 ELASA) on streptavidin-coated plates with MALT1 antibody detection; assay type: cell-based; details: for effect of inhibitor on active MALT1 signal in DLBCL cells: inhibitor-treated (10 μM) DLBCL cells
Experimental: as §1
Untreated DLBCL (1×10^7), primary T cells (0.25×10^7) or Jurkat T cells (0.2-1×10^7) (stimulated or not) were lysed in 300 μl co-IP buffer without protease inhibitors, centrifuged, incubated with probe 7 (concentration as depicted) for 1 h at RT, then transferred to streptavidin-coated plates (96 well, clear) and incubated o/n at 4° C. After blocking with 2% BSA in PBS-T, detection was performed by incubation with MALT1 primary antibody (1 h, RT) and HRP-coupled secondary antibody (1 h, RT). […] was determined after TMB substrate incubation in a photometer (Bio-Tek).

active MALT1 [3] = biological target: T1, active MALT1; assay: Labeling with diagnostic inhibitor in cell extracts (gel-based, fluorescence scan): active MALT1 band; details: for selectivity / background of probe labeling in extracts: Jurkat T cell extracts; for detection of endogenous active MALT1-probe complexes: Jurkat T cells stimulated or not, whole cell lysates; for effect of inhibitor pretreatment on probe 5 labeling of active MALT1: Jurkat T cells, 10 μM inhibitor before stimulation
Experimental: as §1
(§2) Jurkat T cells (1-2×10^7), primary human PBMCs or primary human T cells (0.25 or 1×10^7) were lysed in 150 μl co-IP buffer without protease inhibitors. DLBCL (3×10^7) were lysed in 250 μl buffer. After centrifugation (14000 rpm, 10 min, 4° C.), 100 μl extract (DLBCL: 200 μl) was stained with probe 5 or probe 6 (3 μM end) for 50 min at 29° C., mixed with 4× loading dye and boiled.

cathepsin B [4] = biological target: T2, cathepsin B (Homo sapiens, UniProt P07858); assay: Labeling with diagnostic inhibitor in cell extracts (gel-based, fluorescence scan): about 30 kDa cathepsin B band; parameters: endogenous in cells; host or cells: Jurkat T cells; HBL1 and other DLBCL cell lines; details: for effect of inhibitor pretreatment on the band below 34 kDa (cathepsin B) labeled by probe 5: Jurkat T cells, 10 μM inhibitor
Experimental: as §1, §2

cathepsin B [5] = biological target: T2, cathepsin B; assay: Cathepsin B cleavage assay (zRR-AMC substrate); assay type: biochemical; parameters: purchased BioVision; details: 0.2 ng cathepsin B, 1 mM zRR-AMC, 2 h at 30° C.
Experimental: (§3) C) Impact of indicated compounds on MALT1, Caspase8 and cathepsin B was tested in in vitro cleavage assays using fluorescent substrates. Results and SD from three independent experiments are shown.
0.2 ng cathepsin B together with probe 5, z-VRPR-FMK (SEQ ID No. 6), mepazine or CA-074 was incubated with 1 mM zRR-AMC substrate for 2 h at 30° C. Assay was performed in 0.1 M sodium acetate pH 5.5, 10 mM DTT and 0.1 mM EDTA. Again, increase of AMC fluorescence is measured in a Synergy 2 Microplate Reader (Biotek).

MALT1 = biological target: T3, MALT1 (Homo sapiens, UniProt Q9UDY8); assay: MALT1 in vitro cleavage assay using fluorescent substrate; assay type: biochemical
T3 construct: GST
T3 sequence (Q9UDY8 1-824): T1 sequence (Q9UDY8 1-824)
Experimental: as §3
Preferably, MALT1 activity is determined in a MALT1 cleavage assay. […] The assay may be performed in cleavage buffer comprising for example 50 mM MES, 1 M sodium citrate pH 7, 150 mM NaCl, 10% sucrose, 0.1% chaps, 10 mM DTT. Catalytically active MALT1 cleaves the substrate and an increase of AMC fluorescence can be measured.

[6] = HBL1 cells, inhibitors 10 μM each

Molecule: Ac-Lys(biotin)-LRSR-AOMK [probe 7]
detection of MALT1-probe 7 complexes after pulldown (active MALT1 [1]; Jurkat T cells, P/I stimulated or not): exclusively detected in extracts of P/I stimulated Jurkat T cells
probe concentration sufficient to completely remove active MALT1 from the extracts (active MALT1 [1]; extracts of stimulated T cells, supernatant checked with probe 6): 100 nM
constitutively active MALT1 after pulldown in DLBCL cells (active MALT1 [1]; untreated ABC and GCB DLBCL cells, western blot): exclusively in ABC, but not in GCB DLBCL cells
probe concentration sufficient to obtain a robust increase in active MALT1 (active MALT1 [2]; 2×10^6 Jurkat T cells stimulated or not): ≤ 10 nM
MALT1 activity in ABC versus GCB DLBCL cells, ELISA (active MALT1 [2]; DLBCL cell lines, probe 7): significant increase in MALT1 activity in ABC DLBCL cells when compared to GCB DLBCL cells
MALT1 binding to streptavidin-coated plates (active MALT1 [2]; Jurkat T cells, stimulated or not): only detected in P/I or CD3/CD28 stimulated Jurkat T cells
active MALT1 in stimulated primary T cells, ELISA (active MALT1 [2]; primary human T cells, 0.1 μM probe 7): robust induction of active MALT1

Molecule: CCCNC(=O)[C@H]1O[C@@H]1C(=O)N[C@H](C(=O)N1CCC[C@H]1C(=O)OC)[C@@H](C)CC [CA-074Me]
effect of inhibitor pretreatment on probe 5 labeling of active MALT1 (active MALT1 [3]): inducible MALT1 labeling was unaffected
effect of inhibitor on the about 30 kDa cathepsin B signal labeled by probe 6 (cathepsin B [4]; [6]): sensitive
effect of inhibitor pretreatment on the band below 34 kDa (cathepsin B) labeled by probe 5 (cathepsin B [4]): completely abolished detection
effect of inhibitor on active MALT1 signal in DLBCL cells (active MALT1 [2]; probe 7): resistant

Molecule: C=CC(=O)N1CCC[C@@H](n2nc(-c3ccc(Oc4ccccc4)cc3)c3c(N)ncnc32)C1 [Ibrutinib]
reduction of MALT1 activity (active MALT1 [2]; 0.5 nM, ABC DLBCL cells): 50-60%

Molecule: FITC-LRSR-AOMK ({FITC}-LRSR-{AOMK}) [probe 5]
active MALT1 signal in lymphoma whole cell extracts (active MALT1 [3]; ABC DLBCL cells (HBL1 for probe 6)): not detectable
selectivity / background of probe labeling in extracts (active MALT1 [3]): MALT1 was the only inducible band
detection of endogenous active MALT1-probe complexes (active MALT1 [3]): exclusively detected after T cell stimulation
detection of active MALT1 in primary cells (active MALT1 [3]; extracts of P/I-stimulated PBMCs and human T cells): detected active MALT1
inhibition of MALT1 protease activity in vitro (MALT1): inhibit MALT1
inhibition of cathepsin B activity in vitro (cathepsin B [5]): abrogated cathepsin B activity even though slightly less efficient

Molecule: CCCNC(=O)[C@H]1O[C@@H]1C(=O)N[C@H](C(=O)N1CCC[C@H]1C(=O)O)[C@@H](C)CC [CA-074]
inhibition of MALT1 protease activity in vitro (MALT1): neither the non-competitive MALT1 inhibitor mepazine, nor the irreversible cathepsin B specific inhibitor CA-074 showed any cross-inhibition

Continued, in another order:

detection of endogenous active MALT1-probe complexes (active MALT1 [3]): exclusively detected after stimulation
Molecule: BODIPY-ALVSR-AOMK ({BODIPY}-ALVSR-{AOMK″}; reading uncertain)
selectivity / background of probe labeling in extracts (active MALT1 [3]): unspecific background labeling of unknown identity at approx. 40 kDa
effect of titrating probe concentration on labeling (active MALT1 [3]; extracts of stimulated Jurkat T cells): decrease background labeling, while active MALT1 activity stays stable

effect of inhibitor on probe 6 labeling of active MALT1 (active MALT1 [3]; [6]): sensitivity
effect of inhibitor pretreatment on the band below 34 kDa (cathepsin B) labeled by probe 5 (cathepsin B [4]): unaffected
effect of inhibitor on formation of MALT1-probe 7 complexes (active MALT1 [1]; Jurkat T cells pretreated with 10 μM inhibitors, 0.1 μM probe 7): blocked
effect of inhibitor on active MALT1 signal in DLBCL cells (active MALT1 [2]; probe 7): strongly reduced
Molecule: CN1CCCC(CN2c3ccccc3Sc3ccccc32)C1 (centres unmarked) [mepazine, 10-[(1-methylpiperidin-3-yl)methyl]-10H-phenothiazine]
effect of inhibitor pretreatment on probe 5 labeling of active MALT1 (active MALT1 [3]): prevents binding of diagnostic MALT1-inhibitor
inhibition of cathepsin B activity in vitro (cathepsin B [5]): neither the non-competitive MALT1 inhibitor mepazine, nor the irreversible cathepsin B specific inhibitor CA-074 showed any cross-inhibition

effect of inhibitor pretreatment on the band below 34 kDa (cathepsin B) labeled by probe 5 (cathepsin B [4]): unaffected
Molecule: CSc1ccc2c(c1)N(CCC1CCCCN1C)c1ccccc1S2 (centres unmarked) [thioridazine, 10-[2-(1-methylpiperidin-2-yl)ethyl]-2-(methylthio)phenothiazine]
effect of inhibitor pretreatment on probe 5 labeling of active MALT1 (active MALT1 [3]): prevents binding of diagnostic MALT1-inhibitor

cellular MALT1 inhibition, inhibitor profiling (active MALT1 [2]; ABC DLBCL cell line OCI-Ly3, increasing concentrations): slightly more potent
concentrations at which MALT1 was inhibited (active MALT1 [2]; all ABC DLBCL cell lines): 0.3 to 10 µM
Molecule: CN1CCC[C@H](CN2c3ccccc3Sc3ccccc32)C1 [S-mepazine, 10-{[(3S)-1-methylpiperidin-3-yl]methyl}-10H-phenothiazine]
